Test results from US9359338B2, “Cyclopropanecarboxamido-substitute aromatic compounds as anti-tumor agents” (Crown Bioscience Inc. (Taiwan), priority 2012, dated 2016).

What was measured:
pERK in MDA-MB-231 cells = test: Inhibitory activity at pERK (In Cell Western, MDA-MB-231 cells); format: cell-based; details: Homo sapiens, MDA-MB-231, MDA-MB-231 cells; read-out: MDA-MB-231 pERK IC50
Procedure: Inhibitory Activity of Compounds at pERK
When the cells reach 80% confluency, collect cells by trypsinization and centrifugation at 800 rpm for 3 minutes. Resuspend cells with appropriate volume of medium and count cell numbers. Adjust cell concentration to 70000 cells/mL, and split 100 μL cell suspension per well into 96-well plates. Transfer the plates into cell culture incubator (37° C., 5% CO2) and incubate cells overnight. Discard the medium, wash with PBS once, Prepare compound serial dilutions in culture medium with total 8 compound concentrations at 3-fold serial dilutions (the final top concentration starts from 30 μM). Dispense 75 μL DMEM medium (with 0.1% BSA) and 25 μL of each test compound dilution into corresponding wells with DMSO at 0.3% final concentration. Continue incubating cells in cell culture incubator for additional 2 hrs at 37° C., 5% CO2. Discard culture medium, and wash cells once with PBS. Add 100 μL of 4% formaldehyde solution to each well and fix for 20 min. Discard the formaldehyde, then add 100 μL ice-cold 100% methanol at 4° C. for 20 min. Discard methanol, wash with PBS three times. Add to each well 100 μL of 2% BSA solution, seal for 30 min at room temperature. Discard the BSA solution, add to each well 50 μL of the 1st antibody solution (prepared with 2% BSA, 1:250 dilution), incubate at 4° C. overnight. Discard the 1^St antibody solution, wash with PBS four times. Add to each well […] the 2nd antibody solution (prepared with 1% BSA, 1:1000 dilution), incubate at room temperature for 1 hr. Discard the 2nd antibody solution, wash with PBS four times, add to each well 100 μL PI solution (1.5 μM), incubate at room temperature for 30 min. Use Acumen (TPP) to measure the fluorescence. • [Samples]: Compounds in the examples and sorafenib (positive control) • [Data Analysis]: Use CBIS data analysis software to calculate IC50 values

KDR kinase (790-1356 AA) = KDR kinase (790-1356 AA) (Homo sapiens (Human), UniProt P35968); test: Inhibitory activity at KDR kinase (Lance Ultra Ulight-TK assay); format: biochemical
KDR kinase (790-1356 AA), sequence (P35968 790-1356): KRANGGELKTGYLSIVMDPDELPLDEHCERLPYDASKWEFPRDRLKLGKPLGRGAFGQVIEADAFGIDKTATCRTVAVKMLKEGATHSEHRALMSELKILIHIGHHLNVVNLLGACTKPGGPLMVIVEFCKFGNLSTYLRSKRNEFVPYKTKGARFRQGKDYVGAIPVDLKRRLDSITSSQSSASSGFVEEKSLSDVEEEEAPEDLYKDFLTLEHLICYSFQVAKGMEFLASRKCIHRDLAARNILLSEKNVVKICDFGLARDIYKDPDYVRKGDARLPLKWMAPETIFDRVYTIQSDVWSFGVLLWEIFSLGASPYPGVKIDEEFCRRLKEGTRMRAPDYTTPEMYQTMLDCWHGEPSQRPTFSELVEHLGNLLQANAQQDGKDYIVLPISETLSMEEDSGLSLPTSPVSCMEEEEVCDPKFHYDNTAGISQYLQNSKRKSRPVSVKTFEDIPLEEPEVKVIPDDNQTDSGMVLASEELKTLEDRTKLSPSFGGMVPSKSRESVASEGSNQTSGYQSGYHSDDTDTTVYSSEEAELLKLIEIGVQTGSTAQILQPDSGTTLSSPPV
Procedure: Inhibitory Activity of Compounds at KDR Kinase
• [Experimental method]: Use Lance@Ultra Ulight™-TK assay kit from PerKinElmer to evaluate the inhibitory activity of compounds at KDR kinase. • [Instrument]: PerKinElmer's ENVISION plate reader • [Materials]: Optiplate-384 well plate (PerKinElmer), kinase buffer (50 mM Hepes pH7.5, 0.25 mM EGTA, 2 mM DTT, 0.01% Tween 20, 10 mM Mg^2+, 0.5 mM Mn^2+), KDR kinase (790-1356 AA, Crown Bioscience), KDR kinase substrate (PerKinElmer catalogue # TRF0127-M), Lance@Eu-W1024-anti-phosphotyrosine (PT66) (PerKinElmer, catalogue #AD0068), ATP (Invitrogen), DMSO (Sigma, catalogue #34869), purified water (Millipore, type: Milli-Q). • [Study conditions]: Mix KDR (final concentration: 20 nM) and compound (final DMSO: 0.5%), pre-incubate for 20 min at 30° C.; then add ATP (final concentration: 90 μM) and the substrate (final concentration […]). React for 2 hrs at 30° C. After the reaction, add antibody and reaction for 60 min at 30° C. Read the plate (615 nm, 665 nm), calculate the ratio of the value at 665 nm vs 615 nm and analyze the data. • [Samples]: Compounds in the examples and Sorafenib (positive control) • [Data Analysis]: Use CBIS data analysis software to calculate IC50 values

PLC-PRF-5 cells = test: Inhibition of proliferation of PLC-PRF-5 cells (ATPlite); format: cell-based; details: Homo sapiens, PLC-PRF-5, PLC-PRF-5 cells; read-out: PLC-PRF-5 cell proliferation IC50
Description: Inhibitory Activity of Compounds to the Proliferation of PLC-PRF-5 Cells
• [experimental Method]: Use PerKinElmer's ATPlite™ Luminescence ATP Detection Assay System to evaluate the inhibitory activity of compounds to the proliferation of PLC-PRF-5 cells. • [Instruments]: ENVISION plate reader (PerKinElmer) and centrifuge (Thermo Scientific, Sorvall ST16R) • [material]: PLC-PRF-5 cells (ATCC), 96-well plate (Nunc, #165305), DMEM medium (Gibco, #11965-092), PBS (Invitrogen, #10010023), fetal bovine serum (Gibco, #16000044), DMSO (Sigma, #D2650), ATPlite™ Luminescence ATP Detection Assay System (PerkinElmer, #6016949), purified water (Millipore, type: Milli-Q). • [Protocol]: Grow PLC-PRF-5 cells in DMEM supplemented with 10% FBS. When the cells reach 80% confluency, collect cells by trypsinization and centrifugation at 800 rpm for 3 min. Resuspend cells with appropriate volume of medium and count cell numbers. Adjust cell concentration to 50000 cells/mL, and split 160 μL cell suspension per well into 96-well plates. Transfer the plates into cell culture incubator (37° C., 5% CO2) and incubate cells for 2 hrs. Prepare compound serial dilutions in culture medium with total 8 compound concentrations at 3-fold serial dilutions (the final top concentration starts from 30 μM). Dispense 40 μL of each test compound dilution into corresponding wells with DMSO at 0.3% final concentration. Continue incubating cells in cell culture incubator for additional 96 hrs at 37° C., 5% CO2. Discard culture medium, and wash cells once with PBS. Add 50 μL cell lysis buffer per well and shake plates for 5 min at room temperature to ensure complete lysis of cells. Then add 50 μL of substrate solution and shake plates for 1 min at room temperature. Allow the plates to incubate at room temperature for 5 min, followed by recording the luminescence signals using Envision, and subsequent data analysis. • [Samples]: Compounds in the examples and Sorafenib (positive control) • [Data analysis]: Use CBIS data analysis software to calculate IC50 values

Row | Compound | IC50 (pERK in MDA-MB-231 cells) [nM] | IC50 (KDR kinase (790-1356 AA)) [nM] | IC50 (PLC-PRF-5 cells) [nM]
1 | CC(F)(F)c1cccc(NC(=O)Nc2ccc(Oc3cc(NC(=O)C4CC4)ncn3)c(F)c2)c1 [Exe. 103] | 300 | 12.4 | 373
2 | CC(F)(F)c1ccc(F)c(NC(=O)Nc2ccc(Oc3cc(NC(=O)C4CC4)ncn3)c(F)c2)c1 [Exe. 104] | 252 | 10.2 | 100
3 | CC(F)(F)c1cc(NC(=O)Nc2ccc(Oc3cc(NC(=O)C4CC4)ncn3)c(F)c2)ccc1F [Exe. 106] | 465 | 10.4 | 850
4 | Cc1cc(NC(=O)Nc2ccc(F)c(C(F)(F)F)c2)ccc1Oc1cc(NC(=O)C2CC2)ncn1 [Exe. 111] | 41 | 7 | 2630
5 | Cc1cc(NC(=O)Nc2cccc(C(F)(F)F)c2)ccc1Oc1cc(NC(=O)C2CC2)ncn1 [Exe. 112] | 85 | 14.5 | 2000
6 | Cc1cc(NC(=O)Nc2cccc(OC(F)(F)F)c2)ccc1Oc1cc(NC(=O)C2CC2)ncn1 [Exe. 113] | 54 | 8.1 | 781
7 | Cc1cc(NC(=O)Nc2ccc(Cl)c(OC(F)(F)F)c2)ccc1Oc1cc(NC(=O)C2CC2)ncn1 [Exe. 114] | 37 | 9.8 | 4600
8 | Cc1cc(NC(=O)Nc2cc(F)cc(C(C)(F)F)c2)ccc1Oc1cc(NC(=O)C2CC2)ncn1 [Exe. 115] | 300 | 9.5 | 1310
9 | Cc1cc(NC(=O)Nc2ccc(Cl)c(C(C)(F)F)c2)ccc1Oc1cc(NC(=O)C2CC2)ncn1 [Exe. 117] | 27 | 12 | 2930
10 | O=C(Nc1cccc(Oc2cc(NC(=O)C3CC3)ncn2)c1)Nc1ccc(F)c(C(F)(F)F)c1 [Exe. 119] | 184 | 14.9 | 18800
11 | O=C(Nc1cccc(Oc2cc(NC(=O)C3CC3)ncn2)c1)Nc1cccc(C(F)(F)F)c1 [Exe. 120] | 617 | 12 | > 30000
12 | O=C(Nc1cccc(Oc2cc(NC(=O)C3CC3)ncn2)c1)Nc1cccc(OC(F)(F)F)c1 [Exe. 121] | 252 | 11.5 | > 30000
13 | CC(F)(F)c1cc(NC(=O)Nc2cccc(Oc3cc(NC(=O)C4CC4)ncn3)c2)ccc1Cl [Exe. 122] | 133 | 8.7 | 22000
14 | CN(c1ccc(NC(=O)Nc2cccc(C(F)(F)F)c2)c(F)c1)c1cc(NC(=O)C2CC2)ncn1 [Exe. 123] | 703 | 7.4 | 8380
15 | O=C(Nc1ccc(Oc2ccnc(NC(=O)C3CC3)c2)nc1)Nc1cc(N2CCC(F)CC2)cc(C(F)(F)F)c1 [Exe. 129] | 105 | 14.2 | 2260
16 | CN1CCC(c2cc(NC(=O)Nc3ccc(Oc4ccnc(NC(=O)C5CC5)c4)cn3)cc(C(F)(F)F)c2)CC1 [Exe. 134] | 33 | 7.8 | 199
17 | O=C(Nc1cccc(C(F)(F)F)c1)Nc1ccc(Oc2ccnc(NC(=O)C3CC3)c2)cn1 [Exe. 135] | 208 | 5.8 | 100

Row | Compound | IC50 (pERK in MDA-MB-231 cells) [nM] | IC50 (KDR kinase (790-1356 AA)) [nM] | IC50 (PLC-PRF-5 cells) [nM]
18 | Cc1ccc(NC(=O)Nc2ccc(Oc3ccnc(NC(=O)C4CC4)c3)cc2)cc1C(F)(F)F [Exe. 140] | 10.6 | 10 | 230
19 | CC(F)(F)c1cc(NC(=O)Nc2ccc(Oc3ccnc(NC(=O)C4CC4)c3)cc2)ccc1F [Exe. 150] | 20.4 | 11.5 | 737
20 | Cc1ccc(NC(=O)Nc2ccc(Oc3ccnc(NC(=O)C4CC4)c3)c(F)c2)cc1C(F)(F)F [Exe. 154] | 14.9 | 11.3 | 130
21 | O=C(Nc1cc(F)cc(C(F)(F)F)c1)Nc1ccc(Oc2ccnc(NC(=O)C3CC3)c2)c(F)c1 [Exe. 155] | 195 | 12.1 | 571
22 | O=C(Nc1ccnc(C(F)(F)F)c1)Nc1ccc(Oc2ccnc(NC(=O)C3CC3)c2)c(F)c1 [Exe. 158] | 81.9 | 8.3 | 1040
23 | O=C(Nc1ccc(Oc2ccnc(NC(=O)C3CC3)c2)c(F)c1)Nc1ccc(C(F)(F)F)cc1Cl [Exe. 160] | 186 | 7.8 | 4100
24 | O=C(Nc1cncc(C(F)(F)F)c1)Nc1ccc(Oc2ccnc(NC(=O)C3CC3)c2)c(F)c1 [Exe. 169] | 43 | 14.6 | 340
25 | O=C(Nc1cc(N2CCOCC2=O)cc(C(F)(F)F)c1)Nc1ccc(Oc2ccnc(NC(=O)C3CC3)c2)c(F)c1 [Exe. 171] | 30.2 | 12.4 | 1980
26 | CN1CCN(c2cc(C(F)(F)F)cc(NC(=O)Nc3ccc(Oc4ccnc(NC(=O)C5CC5)c4)c(F)c3)n2)CC1 [Exe. 172] | 74 | 14.8 | 197
27 | CN1CCC(Nc2cc(C(F)(F)F)cc(NC(=O)Nc3ccc(Oc4ccnc(NC(=O)C5CC5)c4)c(F)c3)n2)CC1 [Exe. 173] | 80 | 22.5 | 254
28 | O=C(Nc1ccc(Oc2ccnc(NC(=O)C3CC3)c2)c(F)c1)Nc1cc(C(F)(F)F)cc(N2CCOCC2)n1 [Exe. 174] | 60.6 | 5.4 | 240
29 | O=C(Nc1ccc(Oc2ccnc(NC(=O)C3CC3)c2)c(F)c1)Nc1cc(OC(F)(F)F)ccc1F [Exe. 176] | 40 | 5.7 | 60
30 | O=C(Nc1ccc(Oc2ccnc(NC(=O)C3CC3)c2)c(F)c1)Nc1ccc(F)c(OC(F)(F)F)c1 [Exe. 177] | 37 | 9.5 | 690
31 | CC(F)(F)c1cc(F)cc(NC(=O)Nc2ccc(Oc3ccnc(NC(=O)C4CC4)c3)c(F)c2)c1 [Exe. 179] | 51.5 | 10.5 | 206
32 | CC(F)(F)c1cccc(NC(=O)Nc2ccc(Oc3ccnc(NC(=O)C4CC4)c3)c(F)c2)c1 [Exe. 180] | 31.7 | 9.8 | 152
33 | O=C(Nc1ccc(Oc2ccnc(NC(=O)C3CC3)c2)c(F)c1)Nc1ccc(C(F)(F)F)c(Cl)c1 [Exe. 185] | 46.4 | 12.3 | 1480
34 | Cc1cc(Oc2ccnc(NC(=O)C3CC3)c2)ccc1NC(=O)Nc1cc(F)cc(C(F)(F)F)c1 [Exe. 192] | 20 | 17.5 | 2910
